What was measured:
AHAS W574L = AHAS W574L (Arabidopsis thaliana, UniProt P17597, E575Q/W574L); assay type: biochemical
Protocol: (§1) Bacteria are grown at 37° C. in LB-medium containing 100 mg/l carbenicillin and 25 mg/l canamycin, induced with 1 mM isopropyl-β-D-thiogalactopyranoside at an OD600 of 0.6, cultivated for 16 hours at 18° C. and harvested by, e.g., centrifugation. Bacterial pellets are resuspended in 100 mM sodium phosphate buffer pH 7.0 containing 0.1 mM thiamine-pyrophosphate, 1 mM MgCl2, and 1 μM FAD at a concentration of 1 gram wet weight per 25 ml of buffer and disrupted by, e.g., sonification. The crude protein extract obtained after centrifugation is used for ALS activity measurements.
(§2) ALS protein can be extracted from leaves or tissue cultures, such as B. napus or B. juncea leaves, or B. napus or B. juncea tissue cultures as described by Ray (Plant Physiol, 1984, 75:827-831). An ALS assays can be carried out in 96-well microtiter plates using a modification of the procedure described by Ray (1984): The reaction mixture contains 20 mM potassium phosphate buffer pH 7.0, 20 mM sodium pyruvate, 0.45 mM thiamine-pyrophosphate, 0.45 mM MgCl2, 9 μM FAD. ALS enzyme and various concentrations of ALS inhibitors can be mixed in a final volume of 90 μl Assays can be initiated by adding enzyme and the assays can be terminated after 75 min incubation at 30° C. by the addition of 40 μl 0.5 M H2SO4.

AHAS P197S = AHAS P197S (Arabidopsis thaliana, UniProt P17597, E575Q/P197S); assay type: biochemical
Sequence of AHAS P197S (P17597 56-670 P197S/E575Q): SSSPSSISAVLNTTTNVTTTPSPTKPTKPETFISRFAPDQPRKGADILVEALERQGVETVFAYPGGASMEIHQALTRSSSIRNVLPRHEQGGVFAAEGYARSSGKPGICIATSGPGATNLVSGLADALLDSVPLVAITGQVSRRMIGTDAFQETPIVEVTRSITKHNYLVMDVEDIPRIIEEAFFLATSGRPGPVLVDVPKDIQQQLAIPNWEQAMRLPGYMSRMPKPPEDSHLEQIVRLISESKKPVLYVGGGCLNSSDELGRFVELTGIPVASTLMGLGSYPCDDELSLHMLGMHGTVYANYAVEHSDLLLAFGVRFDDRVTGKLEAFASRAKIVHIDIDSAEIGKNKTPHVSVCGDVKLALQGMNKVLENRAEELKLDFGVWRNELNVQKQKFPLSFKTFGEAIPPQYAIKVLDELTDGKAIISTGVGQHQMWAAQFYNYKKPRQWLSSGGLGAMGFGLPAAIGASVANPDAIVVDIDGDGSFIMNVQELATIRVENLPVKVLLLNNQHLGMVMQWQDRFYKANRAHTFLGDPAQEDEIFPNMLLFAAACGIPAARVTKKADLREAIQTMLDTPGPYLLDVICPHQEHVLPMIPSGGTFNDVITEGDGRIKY
Protocol: as §1, §2

AHAS D376E = AHAS D376E (Arabidopsis thaliana, UniProt P17597, D376E/E575Q); experiment: biochemical; conditions: for Resistance Factor: AHAS D376E
Sequence of AHAS D376E (P17597 56-670 D376E/E575Q): as the sequence (P17597 56-670 P197S/E575Q) above, with S142P, D321E counted along it
Protocol: as §1, §2

AHAS P197S-D376E = AHAS P197S-D376E (Arabidopsis thaliana, UniProt P17597, D376E/E575Q/P197S); experiment: biochemical; conditions: for Resistance Factor: AHAS P197S-D376E
Sequence of AHAS P197S-D376E (P17597 56-670 P197S/D376E/E575Q): as the sequence (P17597 56-670 P197S/E575Q) above, with D321E counted along it
Protocol: as §1, §2

AHAS D376E-W574L = AHAS D376E-W574L (Arabidopsis thaliana, UniProt P17597, D376E/E575Q/W574L); experiment: biochemical; conditions: for Resistance Factor: AHAS D376E-W574L
Sequence of AHAS D376E-W574L (P17597 56-670 D376E/W574L/E575Q): as the sequence (P17597 56-670 P197S/E575Q) above, with S142P, D321E, W519L counted along it
Protocol: as §1, §2

AHAS P197S-W574L = AHAS P197S-W574L (Arabidopsis thaliana, UniProt P17597, E575Q/P197S/W574L); experiment: biochemical; conditions: for Resistance Factor: AHAS P197S-W574L
Sequence of AHAS P197S-W574L (P17597 56-670 P197S/W574L/E575Q): as the sequence (P17597 56-670 P197S/E575Q) above, with W519L counted along it
Protocol: as §1, §2

AHAS P197S-D376E-W574L = AHAS P197S-D376E-W574L (Arabidopsis thaliana, UniProt P17597, D376E/E575Q/P197S/W574L); experiment: biochemical; conditions: for Resistance Factor: AHAS P197S-D376E-W574L
Sequence of AHAS P197S-D376E-W574L (P17597 56-670 P197S/D376E/W574L/E575Q): as the sequence (P17597 56-670 P197S/E575Q) above, with D321E, W519L counted along it
Protocol: as §1, §2

[1] = tested on: wild-type (WT) oilseed rape; experiment: Field herbicide tolerance, visible phytotoxicity; assay type: in vivo, Brassica napus; conditions: gai/ha: imazamox 40, bispyribac-sodium 50, propoxycarbazone-sodium 70, mesosulfuron-methyl 60, pyroxsulam 12.5 + cloquintocet-mexyl 37.5, each + rapeseed oil methylated 366.5
[2] = tested on: oilseed rape homozygous for HETO139 and HETO134 (139-134); experiment: Field herbicide tolerance, visible phytotoxicity (ALS I W574L, ALS III P197S-D376E); assay type: in vivo, Brassica napus; conditions: gai/ha: imazamox 40, bispyribac-sodium 50, propoxycarbazone-sodium 70, mesosulfuron-methyl 60, pyroxsulam 12.5 + cloquintocet-mexyl 37.5, each + rapeseed oil methylated 366.5
Excerpt: (§3) Seeds of spring oilseed rape homozygous for HETO139 and HETO134 were sown in a field according to typical practical agricultural methods together with seeds homozygous for HETO134 and HETO133 (comprising a W574L mutation on ALS III, which were obtained in the same way as HETO134), and with seeds homozygous for HETO134 and HETO132 (comprising a P197S and a W574L mutation on ALS III, which were obtained in essentially the same way as HETO139). Several ALS inhibitor herbicides were applied to the oilseed rape plants by using specific spray equipment for small plot applications.

[3] = tested on: oilseed rape homozygous for HETO133 and HETO134 (133-134); experiment: Field herbicide tolerance, visible phytotoxicity (ALS I W574L, ALS III W574L); assay type: in vivo, Brassica napus; conditions: gai/ha: imazamox 40, bispyribac-sodium 50, propoxycarbazone-sodium 70, mesosulfuron-methyl 60, pyroxsulam 12.5 + cloquintocet-mexyl 37.5, each + rapeseed oil methylated 366.5
Excerpt: as §3

[4] = tested on: oilseed rape homozygous for HETO132 and HETO134 (132-134); experiment: Field herbicide tolerance, visible phytotoxicity (ALS I W574L, ALS III P197S-W574L); assay type: in vivo, Brassica napus; conditions: gai/ha: imazamox 40, bispyribac-sodium 50, propoxycarbazone-sodium 70, mesosulfuron-methyl 60, pyroxsulam 12.5 + cloquintocet-mexyl 37.5, each + rapeseed oil methylated 366.5
Excerpt: as §3

Sequence of AHAS W574L (P17597 56-670 W574L/E575Q): as the sequence (P17597 56-670 P197S/E575Q) above, with S142P, W519L counted along it

Row | SMILES | Resistance Factor (AHAS W574L) | Resistance Factor (AHAS P197S) | IC50 (AHAS D376E) | Resistance Factor (AHAS D376E) | IC50 (AHAS P197S-D376E) | Resistance Factor (AHAS P197S-D376E) | IC50 (AHAS D376E-W574L) | Resistance Factor (AHAS D376E-W574L) | IC50 (AHAS P197S-W574L) | Resistance Factor (AHAS P197S-W574L) | IC50 (AHAS P197S-D376E-W574L) | Resistance Factor (AHAS P197S-D376E-W574L) | Percentage phytotoxicity ([1]; 9 DAA) | Percentage phytotoxicity ([1]; 16 DAA) | Percentage phytotoxicity ([1]; 24 DAA) | Percentage phytotoxicity ([2]; 9 DAA) | Percentage phytotoxicity ([2]; 16 DAA) | Percentage phytotoxicity ([2]; 24 DAA) | Percentage phytotoxicity ([3]; 9 DAA) | Percentage phytotoxicity ([3]; 16 DAA) | also measured
1 | COc1cc(OC)nc(NC(=O)NS(=O)(=O)N(C)S(C)(=O)=O)n1 [Amidosulfuron, amidosulfuron] | >488 | >488 | > 100 µM | >488 | > 100 µM | >488 | > 100 µM | >488 | > 100 µM | >488 | > 100 µM | >488 | – | – | – | – | – | – | – | – | –
2 | COc1cc(OC)nc(Oc2cccc(Oc3nc(OC)cc(OC)n3)c2C(=O)O)n1 [Bispyribac-sodium, bispyribac-sodium] | 447 | 4 | 1 µM | 56 | 7.94 µM | 447 | > 100 µM | >5623 | > 100 µM | >5623 | > 100 µM | >5623 | 76.7% | 98.3% | 100% | 40% | 65% | 43.3% | 56.7% | 88.3% | Percentage phytotoxicity ([3]; 24 DAA): 92.7%; Percentage phytotoxicity ([4]; 9 DAA): 46.7%; Percentage phytotoxicity ([4]; 16 DAA): 71.7%; Percentage phytotoxicity ([4]; 24 DAA): 43.3%
3 | COc1cc(OC)nc(NC(=O)NS(=O)(=O)c2ncccc2C(F)(F)F)n1 [Flazasulfuron, flazasulfuron] | 3802 | 120 | 0.631 µM | 759 | > 100 µM | >120226 | > 100 µM | >120226 | > 100 µM | >120226 | > 100 µM | >120226 | – | – | – | – | – | – | – | – | –
4 | COC(=O)c1ccc(C(F)(F)F)nc1S(=O)(=O)NC(=O)Nc1nc(OC)cc(OC)n1 [Flupyrsulfuron-methyl] | – | – | – | 2399 | – | >47863 | – | >47863 | – | >47863 | – | >47863 | – | – | – | – | – | – | – | – | –
5 | COCc1cnc(C2=NC(C)(C(C)C)C(=O)N2)c(C(=O)O)c1 (stereo not drawn) [Imazamox, imazamox] | >22 | 1 | 50.1 µM | 11 | > 100 µM | >22 | > 100 µM | >22 | > 100 µM | >22 | > 100 µM | >22 | 73.3% | 98% | 99% | 13.3% | 13.3% | 0% | 6.7% | 10% | Percentage phytotoxicity ([3]; 24 DAA): 0%; Percentage phytotoxicity ([4]; 9 DAA): 6.7%; Percentage phytotoxicity ([4]; 16 DAA): 8.7%; Percentage phytotoxicity ([4]; 24 DAA): 0%
6 | COC(=O)c1ccc(I)cc1S(=O)(=O)[N-]C(=O)Nc1nc(C)nc(OC)n1.[Na+] [Iodosulfuron-methy-sodium, iodosulfuron-methyl-sodium] | 555 | 139 | – | 3503 | – | >35030 | – | >35030 | – | >35030 | – | >35030 | – | – | – | – | – | – | – | – | –
7 | COC(=O)c1ccc(CNS(C)(=O)=O)cc1S(=O)(=O)NC(=O)Nc1nc(OC)cc(OC)n1 [Mesosulfuron-methyl, mesosulfuron-methyl] | 25770 | 65 | – | 12915 | – | – | – | >64730 | – | >64730 | – | >64730 | 76.7% | 98% | 96% | 9.3% | 13.3% | 5% | 11.7% | 13.3% | Percentage phytotoxicity ([3]; 24 DAA): 3.3%; Percentage phytotoxicity ([4]; 9 DAA): 11.7%; Percentage phytotoxicity ([4]; 16 DAA): 11.7%; Percentage phytotoxicity ([4]; 24 DAA): 20.3%
8 | COc1cc(OC)n2nc(S(=O)(=O)Nc3c(Cl)ccc(C)c3Cl)nc2n1 [Metosulam, metosulam] | 5754 | 457 | 2 µM | 575 | > 100 µM | >28840 | > 100 µM | >28840 | > 100 µM | >28840 | > 100 µM | >28840 | – | – | – | – | – | – | – | – | –
9 | COC(=O)c1ccccc1S(=O)(=O)NC(=O)Nc1nc(C)nc(OC)n1 [Metsulfuron-methyl, metsulfuron-methyl] | 755 | 38 | – | 239 | – | >7547 | – | >7547 | – | >7547 | – | >7547 | – | – | – | – | – | – | – | – | –
10 | CCCOc1nn(C(=O)[N-]S(=O)(=O)c2ccccc2C(=O)OC)c(=O)n1C.[Na+] [PROPOXYCARBAZONE-SODIUM, propoxycarbazone-sodium] | – | – | – | – | – | – | – | – | – | – | – | – | 76.7% | 97% | 97.7% | 15% | 20% | 1.7% | 53.3% | 82.7% | Percentage phytotoxicity ([3]; 24 DAA): 76.7%; Percentage phytotoxicity ([4]; 9 DAA): 40%; Percentage phytotoxicity ([4]; 16 DAA): 36.7%; Percentage phytotoxicity ([4]; 24 DAA): 11.7%
11 | CCCOc1nn(C(=O)[N-]S(=O)(=O)c2ccccc2C(=O)OC)c(=O)n1C.[Na+] [Propoxycarbazone] | 293 | 147 | – | 1468 | – | >4641 | – | >4641 | – | >4641 | – | >4641 | – | – | – | – | – | – | – | – | –
12 | COC(=O)c1csc(C)c1S(=O)(=O)NC(=O)n1nc(OC)n(C)c1=O [Thiencarbazone-methyl, thiencarbazone-methyl] | 1173 | 1173 | – | 371 | – | >7399 | – | >7399 | – | >7399 | – | >7399 | – | – | – | – | – | – | – | – | –
13 | COC(=O)c1sccc1S(=O)(=O)NC(=O)Nc1nc(C)nc(OC)n1 [Thifensulfuron-Methyl, thifensulfuron-methyl] | 1585 | 200 | 25.1 µM | 631 | > 100 µM | >2511 | > 100 µM | >2511 | > 100 µM | >2511 | > 100 µM | >2511 | – | – | – | – | – | – | – | – | –

From patent US20160298129A1, “ALS INHIBITOR HERBICIDE TOLERANT MUTANT PLANTS” (BAYER CROPSCIENCE NV, priority 2013, published 2016)
